Assay results reported in patent US10221174B2, “N-(phenylsulfonyl)benzamides and related compounds as BCL-2 inhibitors” (THE REGENTS OF THE UNIVERSITY OF MICHIGAN, priority 2016, dated 2019).
Where two headings read alike, the source gives them in different places.

What was measured:
Mcl-1 = Mcl-1 (Homo sapiens (Human), UniProt Q07820); assay: Fluorescence polarization competitive binding assay, Mcl-1; conditions: FP competition, 20 nM Mcl-1, 2 nM Flu-BID probe; read-out: Inhibitory activity IC50 Mcl-1
Method: Fluorescence polarization values were measured using the Infinite M-1000 plate reader (Tecan U.S., Research Triangle Park, N.C.) in Microfluor 1 96-well, black, round-bottom plates (Thermo Scientific). […] Plates were mixed and incubated at room temperature for 1 hour with gentle shaking to assure equilibrium. […] Equilibrium dissociation constants (Kd) were then calculated by fitting the sigmoidal dose-dependent FP increases as a function of protein concentrations using Graphpad Prism 5.0 software (Graphpad Software, San Diego, Calif.).
Mixtures of 5 μl of the tested inhibitors in DMSO and 120 μl of pre-incubated protein/probe complexes in the assay buffer were added into assay plates and incubated at room temperature for 2 hours with gentle shaking. […] FP values were measured as described above. IC50 values were determined by nonlinear regression fitting of the competition curves.

RS4;11 cells = assay: RS4;11 cell viability, CCK-8 assay; assay type: cell-based; conditions: Homo sapiens, RS4-11, 96 h, CCK-8, 4 days, read-out: RS4, 11 IC50 (Bcl-2 dependent)
Outline: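 RS4;11 cells seeded at 10000 cells/well in medium with 10% FBS, cultured overnight, then exposed to serially diluted compound for 4 days at 37° C., 5% CO2. Viability by CCK-8 absorbance at 450 nm, normalized to vehicle; IC50 by nonlinear regression.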

[1] = tested on: RS4;11 leukemia xenograft; assay: RS4;11 leukemia xenograft model; assay type: in vivo; conditions: nude mice, oral gavage
Method: The antitumor activity of Cpd. No. 6 (compound 6) was also studied in the RS4;11 leukemia xenograft model. Human RS4;11 tumor cells were injected into nude mice and treatment started on day 11 when the tumor size reached approximately 100 mm^3. Cpd. No. 6 was administered via oral gavage at indicated doses and schedules. Cpd.

Pharmacokinetics in rats = assay type: in vivo
Method: The pharmacokinetics of ABT-199 and representative Compounds of the Disclosure were evaluated in rats at an IV dose of 2 mg/kg and an oral dose of 20 mg/kg.

Sequence of Mcl-1 (Q07820 whole entry): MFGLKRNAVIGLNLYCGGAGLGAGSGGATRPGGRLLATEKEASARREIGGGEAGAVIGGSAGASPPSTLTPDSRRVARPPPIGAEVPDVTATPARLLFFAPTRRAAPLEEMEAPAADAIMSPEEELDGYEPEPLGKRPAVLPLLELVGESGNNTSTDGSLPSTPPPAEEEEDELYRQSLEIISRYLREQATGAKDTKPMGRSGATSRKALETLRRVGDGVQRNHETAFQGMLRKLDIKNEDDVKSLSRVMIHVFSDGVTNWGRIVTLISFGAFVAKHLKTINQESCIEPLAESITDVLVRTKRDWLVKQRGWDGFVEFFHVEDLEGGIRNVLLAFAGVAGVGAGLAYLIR

In the case of `O=C(NS(=O)(=O)c1ccc(NC[C@H]2COCCO2)c([N+](=O)[O-])c1)c1ccc(N2CCN(CC3=C(c4ccc(Cl)cc4)CC4(CCC4)CC3)CC2)cc1Oc1cnc2[nH]ccc2c1` [Cpd. No. 6, (S)-N-((4-(((1,4-dioxan-2-yl)methyl)amino)-3-nitrophenyl)sulfonyl)-2-((1H-pyrrolo[2,3-b]pyridin-5-yl)oxy)-4-(4-((6-(4-chlorophenyl)spiro[3.5]non-6-en-7-yl)methyl)piperazin-1-yl)benzamide], the IC50 (Mcl-1) is reported as greater than 5000 nM, the IC50 (RS4;11 cells) is reported as 5.5 nM and the mouse weight ([1]; FIG. 4) is reported as “does not cause weight loss in mice”. For the same compound, the “antitumor activity (tumor growth)” value ([1]; treatment from day 11, FIG. 3) was “inhibits tumor growth”, the “AUC0-∞ IV” value (Pharmacokinetics in rats; IV 2 mg/kg) was 2915 n · gh/mL and the “AUC0-∞ PO” value (Pharmacokinetics in rats; oral 20 mg/kg) was 13475 n · gh/mL. For the same compound, the “F(AUC0-t)” value (Pharmacokinetics in rats; oral 20 mg/kg vs IV 2 mg/kg) was 46.2%, the MRT inf (Pharmacokinetics in rats; rat, in vivo, IV 2 mg/kg) was 2.09 h and the AUC(0-t) (Pharmacokinetics in rats; rat, in vivo, IV 2 mg/kg, read-out: AUC0-t IV) was 2900 ng·h/mL. For the same compound, the clearance (Pharmacokinetics in rats; rat, in vivo, IV 2 mg/kg, read-out: CL (iv) (converted)) was 11.6 mL/min/kg, the Cmax (Pharmacokinetics in rats; rat, in vivo, IV 2 mg/kg, read-out: Cmax IV) was 4170 ng/mL and the Tmax (Pharmacokinetics in rats; rat, in vivo, IV 2 mg/kg, read-out: Tmax IV) was 0.083 h. The Vd (Pharmacokinetics in rats; rat, in vivo, IV 2 mg/kg, read-out: Vss (iv)) was 1.44 L/kg, the half-life (Pharmacokinetics in rats; rat, in vivo, IV 2 mg/kg, read-out: t1/2 IV (converted)) was 4.39 h and the AUC(0-t) (Pharmacokinetics in rats; rat, in vivo, oral 20 mg/kg, read-out: AUC0-t PO) was 13400 ng·h/mL. The Cmax (Pharmacokinetics in rats; rat, in vivo, oral 20 mg/kg, read-out: Cmax PO) was 2620 ng/mL, the Tmax (Pharmacokinetics in rats; rat, in vivo, oral 20 mg/kg, read-out: Tmax PO) was 2.67 h and the half-life (Pharmacokinetics in rats; rat, in vivo, oral 20 mg/kg, read-out: t1/2 PO (converted)) was 3.12 h.
